Experimental data published in the PolyMetriX glass transition set.

glass transition temperature [°C]	SMILES
61.00	*CCCCCCCCCCC(=O)Oc1ccc(-c2ccc(OC(=O)c3ccc4c(c3)C(=O)N(*)C4=O)cc2)cc1 (repeat unit)
-21.00	*CCCCCCCCCCCCCCCCCCCCC(*)COCCOCCOCCOCCOCc1ccc2ccc3cccc4ccc1c2c34 (repeat unit)
308.00	*c1c(C)cc(-c2cc(C)c(N3C(=O)c4ccc(Oc5cc6ccccc6cc5Oc5ccc6c(c5)C(=O)N(*)C6=O)cc4C3=O)c(C)c2)cc1C (repeat unit)
-86.00	*O[Si](C)(C=C)O[Si](C)(C=C)O[Si](C)(C)c1ccc([Si](*)(C)C)cc1 (repeat unit)
237.00	*c1cccc(N2C(=O)c3ccc(Oc4cc5ccccc5cc4Oc4ccc5c(c4)C(=O)N(*)C5=O)cc3C2=O)c1 (repeat unit)
314.00	*C(=O)c1ccc2c(c1)C(=O)N(c1cc(C(=O)O)cc(N3C(=O)c4ccc(*)cc4C3=O)c1)C2=O (repeat unit)
10.80	*COC(=O)OCC1OC(OCC)(OCC)OC1* (repeat unit)
137.00	*c1ccc(-c2ccc3c(c2)C(CCCCCCCC)(CCCCCCCC)c2cc(-c4ccc(N(*)c5ccc(N(c6ccc(C(C)(C)c7ccccc7)cc6)c6ccc(C(C)(C)c7ccccc7)cc6)cc5)cc4)ccc2-3)cc1 (repeat unit)
324.00	*c1ccc(Cc2ccc(N3C(=O)CC(Nc4ccc(N(c5ccc(Nc6ccc([N+](=O)[O-])cc6)cc5)c5ccc(NC6CC(=O)N(*)C6=O)cc5)cc4)C3=O)cc2)cc1 (repeat unit)
215.00	*c1cc(C(c2ccc(OCCN(C)c3ccc(/C=C/C4=CC(=C(C#N)C#N)CC(C)(C)C4)cc3)c(N3C(=O)c4ccc(Oc5ccc6c(c5)C(=O)N(*)C6=O)cc4C3=O)c2)(C(F)(F)F)C(F)(F)F)ccc1OCCN(C)c1ccc(/C=C/C2=CC(=C(C#N)C#N)CC(C)(C)C2)cc1 (repeat unit)
139.00	*Oc1cccc2ccc(Oc3ccc(NC(=O)c4ccc(Oc5ccc(C(C)(C)c6cccc(C(C)(C)c7ccc(Oc8ccc(C(=O)Nc9ccc(*)cc9)cc8)cc7)c6)cc5)cc4)cc3)cc12 (repeat unit)
223.00	*c1ccc(Oc2ccc(C(=O)c3ccc(Oc4ccc(-c5nc(-c6ccccn6)nnc5*)cc4)cc3)cc2)cc1 (repeat unit)
240.50	*Oc1ccc(NC(=O)c2ccc(C(=O)Nc3ccc(*)cc3)cc2)cc1 (repeat unit)
109.00	*CC(*)(C)C(=O)OCCOc1ccc(/N=N/c2ccc(OC)cc2)cc1 (repeat unit)
320.00	*c1ccc(Sc2cc3c(cc2Sc2ccc(N4C(=O)C5C6C=CC(C7C(=O)N(*)C(=O)C67)C5C4=O)cc2)C(=O)N(c2ccc(CC)cc2)C3=O)cc1 (repeat unit)
377.00	*c1ccc2c(c1)C(=O)N(c1c(C)cc(C)c(N3C(=O)c4ccc(C(*)(C(F)(F)F)C(F)(F)F)cc4C3=O)c1C)C2=O (repeat unit)
217.00	*c1ccc(Oc2c(C)cc(C(c3cccnc3)c3cc(C)c(Oc4ccc(N5C(=O)CC(Nc6cccc(NC7CC(=O)N(*)C7=O)c6)C5=O)cc4)c(C)c3)cc2C)cc1 (repeat unit)
147.00	*c1ccc(/C=C/c2cc(OCC(CC)CCCC)c(/C=C/c3ccc(N(*)c4ccccc4)cc3)cc2OC)cc1 (repeat unit)
108.00	*c1cc(Br)c(-c2c(Br)cc(N3C(=O)c4ccc(-c5ccc6c(c5)C(=O)N(*)C6=O)cc4C3=O)cc2C(=O)OCCCCCCCCCCCC)c(C(=O)OCCCCCCCCCCCC)c1 (repeat unit)
119.50	*CC(*)(CC(=O)Oc1ccc(OC)cc1)C(=O)Oc1ccc(OC)cc1 (repeat unit)
42.00	*CC(*)c1cc(C(=O)OCCCCCCCCCCCC)ccc1-c1ccc(OCCCCCCCC)cc1 (repeat unit)
178.00	*c1cccc(OCCCCOc2cccc(N3C(=O)c4ccc(-c5cccc6c5C(=O)N(*)C6=O)cc4C3=O)c2)c1 (repeat unit)
190.00	*c1ccc(Oc2ccc(C(=O)c3cccc(C(=O)c4ccc(Oc5ccc(-c6cc(*)n(-c7ccccc7)n6)cc5)cc4)c3)cc2)cc1 (repeat unit)
201.00	*c1ccc(Oc2ccc(S(=O)(=O)c3ccc(Oc4ccc(N5C(=O)c6ccc(Oc7cccc(Oc8ccc9c(c8)C(=O)N(*)C9=O)c7)cc6C5=O)cc4)cc3)cc2)cc1 (repeat unit)
22.00	*Oc1ccc(CC(NC(=O)CCc2ccc(OC(=O)CCCCCCCCC(*)=O)cc2)C(=O)OCCCCCC)cc1 (repeat unit)

glass transition temperature [°C]	SMILES
179.00	*Oc1cccc2cc(OC(=O)c3ccc(Oc4ccc(C(*)=O)cc4)cc3)ccc12 (repeat unit)
216.70	*Oc1ccc(C(C)(C)c2ccc(Oc3ccc4c(c3)C(=O)N(N3C(=O)c5ccc(*)cc5C3=O)C4=O)cc2)cc1 (repeat unit)
292.00	*C(=O)Nc1cccc(NC(=O)c2cccc(NC(=O)c3ccc(-c4nc5cc(*)ccc5[nH]4)cc3)c2)c1 (repeat unit)
-46.48	*O[Si](C)(C)CCCNC(=O)C(=O)NCCC[Si](*)(C)C (repeat unit)
174.00	*/C=C/c1cc(OCC2CC3CC2C2CCCC32)c(*)cc1OC (repeat unit)
67.00	*OC(F)(C(=O)[N]([Li])S(=O)(=O)C(F)(F)C(*)(F)F)C(F)(F)F (repeat unit)
299.50	*c1ccc(Oc2c(C)cc(Cc3cc(C)c(Oc4ccc(-n5c(=O)c6cc7c(=O)n(*)c(=O)c7cc6c5=O)cc4)c(C)c3)cc2C)cc1 (repeat unit)
224.50	*NNC(=O)c1ccccc1C(=O)NCCCCCCNC(=O)c1ccccc1C(*)=O (repeat unit)
231.00	*Nc1ccc(-c2ccc(Nc3ccc4c(c3)c3cc(*)ccc3n4CC(CC)CCCC)cc2)cc1 (repeat unit)
210.00	*CCN(CCN1C(=O)c2ccc(C(c3ccc4c(c3)C(=O)N(*)C4=O)(C(F)(F)F)C(F)(F)F)cc2C1=O)c1ccc(/N=N/c2ccc([N+](=O)[O-])cc2)cc1 (repeat unit)
113.00	*Oc1ccc(C(CCCC)(CCCC)c2ccc(OC(*)=O)cc2)cc1 (repeat unit)
117.00	*Sc1ccc(Cc2ccc(SC(*)=O)cc2)cc1 (repeat unit)
55.00	*CC(C)COC(=O)c1ccc(C(=O)O*)cc1 (repeat unit)
311.00	*CC1(C)CC(N2C(=O)c3ccc(-c4ccc5c(c4)C(=O)N(*)C5=O)cc3C2=O)CC(C)(C)C1 (repeat unit)
261.00	*c1cccc(C(=O)Nc2cccc(S(=O)(=O)c3cccc(NC(=O)c4cccc(N5C(=O)c6ccc(-c7cccc8c7C(=O)N(*)C8=O)cc6C5=O)c4)c3)c2)c1 (repeat unit)
12.50	*Oc1ccc(CC(NC(=O)CCc2ccc(OC(=O)CCCCCCCCC(*)=O)cc2)C(=O)OCCCCCCCCCCCC)cc1 (repeat unit)
33.00	*c1cc(SCCCCCCCCCCCC)c(*)s1 (repeat unit)
185.00	*c1ccc(Oc2ccc(C(c3ccc(Oc4ccc(-c5nnc(*)n5-c5cccc(C(F)(F)F)c5)cc4)cc3)(C(F)(F)F)C(F)(F)F)cc2)cc1 (repeat unit)
200.00	*Oc1c(C)cc(C(=O)c2ccc(*)cc2)cc1C (repeat unit)
200.00	*C(=O)c1ccc2c(c1)C(=O)N(c1ccc(OCCOCCOCCOc3ccc(N4C(=O)c5ccc(*)cc5C4=O)cc3)cc1)C2=O (repeat unit)
211.00	*CCCCN1C(=O)C2C3C=CC(C4C(=O)N(*)C(=O)C34)C2C1=O (repeat unit)
281.00	*Oc1ccc(NC(=O)NC2CC(C)(C)CC(C)(CNC(=O)Nc3ccc(*)c(-c4ccc(Oc5ccccc5)cc4)c3)C2)cc1-c1ccc(Oc2ccccc2)cc1 (repeat unit)
-9.00	*CC(*)OC(=O)C(F)(F)C(F)(F)C(F)(F)C(F)(F)C(F)(F)F (repeat unit)
110.00	*CC(*)(C)C(=O)Oc1c(Cl)c(Cl)c(Cl)c(Cl)c1Cl (repeat unit)

SMILES	glass transition temperature [°C]
*c1cc(CCCCCCOC(=O)Cc2ccccc2)c(*)s1 (repeat unit)	45.00
*CC(*)c1ccc2ccccc2c1 (repeat unit)	146.50
*CCOCC(CCl)O* (repeat unit)	-40.00
*N=P(N=P(N=S(*)(=O)NCC)(NCC)NCC)(NCC)NCC (repeat unit)	4.00
*CCCCCCCCOc1ccc(/C=C2\CC/C(=C\c3ccc(OCCCCCCCCOP(=O)(O*)OC)c(OC)c3)C2=O)cc1OC (repeat unit)	73.00
*ON(C(F)(F)F)C(F)(Br)C(*)(F)F (repeat unit)	3.00
*CCCCCCCCCC[N+](*)(C)C (repeat unit)	65.90
*OP(=O)(Oc1ccc(Br)cc1)Oc1c(C)cc(S(=O)(=O)c2cc(C)c(*)c(C)c2)cc1C (repeat unit)	162.00
*Oc1c(OC)cc(*)cc1OC (repeat unit)	174.10
*CC(*)c1ccc(C(O)C(F)(F)F)cc1 (repeat unit)	110.00
*CCN(*)C(=O)c1cc(F)cc(F)c1F (repeat unit)	110.00
*CCC(Cl)C(*)Cl (repeat unit)	70.00
*CC(*)c1ccc(C(=O)OCC)cc1 (repeat unit)	94.00
*CCc1cc(Cl)c(*)c(Cl)c1 (repeat unit)	110.00
*N=P(*)(C)CCCC (repeat unit)	-51.00
*c1cccc(P(C)(=O)c2cccc(N3C(=O)c4ccc(NC(=O)OCCOc5ccc(P(=O)(c6ccccc6)c6ccc(OCCOC(=O)Nc7ccc8c(c7)C(=O)N(*)C8=O)cc6)cc5)cc4C3=O)c2)c1 (repeat unit)	201.00
